Test results reported in the NIST ThermoML archive (doi:10.1021/je7000182).
± gives the expanded uncertainty stated by the source.

What was measured:
[1] = for mass density: 101 kPa, Liquid
[2] = xn = mol fraction of the nth substance listed; settings: x2 = 0; for mass density: 101 kPa, Liquid

CC(C)=O [acetone]
[1], Pendant drop shape
Settings | surface tension liquid-gas [mN/m]
288.15 K | 24.34 ± 0.31
298.15 K | 23.02 ± 0.31
308.15 K | 21.72 ± 0.3
318.15 K | 20.38 ± 0.29
328.15 K | 19.15 ± 0.29

[1]
Settings | mass density [kg/m3]
288.15 K | 795.65 ± 0.34
293.15 K | 790.04 ± 0.34
298.15 K | 784.33 ± 0.35
303.15 K | 778.57 ± 0.36
308.15 K | 772.76 ± 0.36
313.15 K | 766.91 ± 0.37
318.15 K | 760.99 ± 0.38
323.15 K | 755.02 ± 0.39
328.15 K | 748.98 ± 0.39

Cc1ccccc1 [toluene]
[1]
Settings | mass density [kg/m3] | surface tension liquid-gas [mN/m]
288.15 K | 871.41 ± 0.25 | 28.9 ± 0.6
293.15 K | 866.77 ± 0.26 | –
298.15 K | 862.12 ± 0.26 | 27.76 ± 0.59
303.15 K | 857.46 ± 0.27 | –
308.15 K | 852.78 ± 0.27 | 26.77 ± 0.57
313.15 K | 848.08 ± 0.28 | –
318.15 K | 843.37 ± 0.29 | 25.72 ± 0.55
323.15 K | 838.64 ± 0.29 | –
328.15 K | 833.9 ± 0.3 | 24.27 ± 0.53

Cc1ccccc1 [toluene] + CC(C)=O
[2]
Settings | mass density [kg/m3] | surface tension liquid-gas [mN/m]
288.15 K | 871.41 ± 0.25 | 28.9 ± 0.6
293.15 K | 866.77 ± 0.26 | –
298.15 K | 862.12 ± 0.26 | 27.76 ± 0.59
303.15 K | 857.46 ± 0.27 | –
308.15 K | 852.78 ± 0.27 | 26.77 ± 0.57
313.15 K | 848.08 ± 0.28 | –
318.15 K | 843.37 ± 0.29 | 25.72 ± 0.55
323.15 K | 838.64 ± 0.29 | –
328.15 K | 833.9 ± 0.3 | 24.27 ± 0.53

O [water] + CC(C)=O
[2], Pendant drop shape
Settings | surface tension liquid-gas [mN/m]
288.15 K | 73.49 ± 0.65
298.15 K | 71.98 ± 0.64
308.15 K | 70.41 ± 0.63
318.15 K | 68.78 ± 0.61
328.15 K | 67.09 ± 0.6

[2]
Settings | mass density [kg/m3]
323.15 K | 988.01 ± 0.15
328.15 K | 985.69 ± 0.15
